# Data from US8809328B2, “Imidazole derivative” (National University Corporation Shizuoka University, priority 2011, dated 2014).
# Assays:
# Format in all cases: in vivo
# [1] = system: rice (Nipponbare) (Oryza sativa L. cv. Nipponbare); assay: Influence of AOH and 3-methyl-AOH on rice seedlings in test tube culture fluid (Example 12); conditions: 0.2 mM in culture fluid, 28° C., one week; for Extension of roots: FIG. 8
# Procedure: Sterilized seeds of rice (Nipponbare) (Oryza sativa L. cv. Nipponbare) were allowed to sprout at 28° C. in three days. The sprouted seeds (four seeds per test tube) were cultivated in a test tube, in which a control culture fluid, a culture fluid to which 0.2 mM of AOH was added, or a culture fluid to which 0.2 mM of 3-methyl-AOH was added and was placed, at 28° C. for a week. The control culture fluid comprises 0.5 mM of NH4NO3, 0.3 mM of Na2HPO4, 0.15 mM of K2SO4, 0.2 mM of MgCl2, 0.1 mM of CaCl2, 23 μM of Fe-ethylenediaminetetraacetic acid (Fe-EDTA), 25 μM of H3BO3, 4.5 μM of MnSO4, 0.15 μM of CuSO4, 0.35 μM of ZnSO4, and 0.05 μM of Na2MoO4. The culture fluid was replaced with new culture fluid every other day. After cultivation, the length of shoots and roots was measured. […] (In FIG. 8, “*” indicates P value <0.05, and “**” indicates P value <0.01. n=16.). In contrast, 3-methyl-AOH gave no influence on extension of the shoots.
# Rice (Oryza sativa) = assay: Rice cultivated in culture fluid added with AHX; conditions: culture fluid with 0.2 mM AHX, 14 days, vs control section
# [2] = system: Zoysiagrass (Agrostis stolonifera); assay: Zoysiagrass cultivated on agar medium added with AHX; conditions: agar medium with 1 mM AHX, 30 days, vs control section
# [3] = system: rice (Nipponbare) (Oryza sativa L. cv. Nipponbare); assay: Influence of AHX or AOH on rice seedlings in test tube culture fluid (Example 6); conditions: 50, 200 or 1000 μM in culture fluid, 28° C., one week, FIG. 4
# Procedure: Sterilized seeds of rice (Nipponbare) (Oryza sativa L. cv. Nipponbare) were allowed to sprout at 28° C. in three days. The sprouted seeds (four seeds per test tube) were cultivated in a test tube, in which a control culture fluid or a culture fluid to which AHX or AOH was added to different concentrations and was placed, at 28° C. for a week. AOH that was produced according to the method of Example 5 was used. The control culture fluid comprises 0.5 mM of NH4NO3, 0.3 mM of Na2HPO4, 0.15 mM of K2SO4, 0.2 mM of MgCl2, 0.1 mM of CaCl2, 23 μM of Fe-ethylenediaminetetraacetic acid (Fe-EDTA), 25 μM of H3BO3, 4.5 μM of MnSO4, 0.15 μM of CuSO4, 0.35 μM of ZnSO4, and 0.05 μM of Na2MoO4. As for the culture fluids containing AHX or AOH, AHX or AOH is added to the above described control culture fluids such that the final concentration becomes 50 μM, 200 μM or 1000 μM. The culture fluid was replaced with new culture fluid every other day. After cultivation, the length of shoots and roots was measured.
# [4] = system: rice (Nipponbare) (Oryza sativa L. cv. Nipponbare); assay: Influence of AOH on soil cultivation of rice (field cultivation)
# Procedure: Rice (Nipponbare) (Oryza sativa L. cv. Nipponbare) was used and cultivated in a field as follows. As cultivation conditions, five sections of (1) to (5) were set.
# Rice (Nipponbare) (Oryza sativa L. cv. Nipponbare) was sown in a nursery box on Apr. 29, 2011, and provided with a total of 15 liters of tap water or tap water to which AOH was added for two weeks from May 24th while raising seedling in the nursery box. On June 7th, each of grown seedlings was transplanted to the field. The planting density was set to the interrow space of 30 cm and the planting distance of 15 cm (three reproductions of 3×3.3 m per one section). As basal fertilizer, 50 L of tap water or tap water to which AOH was added per section was supplied on June 7th. The cultivation was continued, and as topdressing for panicle formation, 50 L of tap water or tap water to which AOH was added per section was supplied on July 25th. Plant bodies were harvested on October 12th.
# (1) Tap water was used as the culture fluid during seedling raising, the basal fertilizer, and the topdressing for panicle formation.
# (2) Tap water to which AOH was added such that the final concentration became 0.5 mM was provided as the culture fluid during seedling raising. Tap water was used as the basal fertilizer, and the topdressing for panicle formation.
# (3) Tap water to which AOH was added such that the final concentration became 1.0 mM was provided as the culture fluid during seedling raising. Tap water was used as the basal fertilizer and the topdressing for panicle formation.
# (4) Tap water to which AOH was added such that the final concentration became 0.5 mM was provided as the basal fertilizer. Tap water was used as the culture fluid during seedling raising and the topdressing for panicle formation.
# (5) Tap water to which AOH was added such that the final concentration became 0.5 mM was provided as the topdressing for panicle formation. Tap water was used as the culture fluid during seedling raising and the basal fertilizer.
# Brown rice was dried, and total brown rice weight, hull weight, non-sieved brown rice weight and sieved brown rice, per 10 plant bodies, and thousand kernel weight were measured.
# [5] = system: rice (Nipponbare) (Oryza sativa L. cv. Nipponbare); assay: Influence of AOH on soil cultivation of rice (pot cultivation)
# Procedure: Rice (Nipponbare) (Oryza sativa L. cv. Nipponbare) was sown on Apr. 29, 2011, and each of grown seedlings was transplanted to a pot (1/5000a pot) filled with soil which contains a fertilizer comprising N (1440 mg), P2O5 (12 mg), K2O (760 mg) and CaO (806 mg) on June 7th, and was soil-cultivated in a greenhouse (28° C.) under any one of seven types of cultivation conditions of the following (1) to (7) until September 24th. Supply of water was performed by providing two liter of tap water or tap water to which AOH was added every week (see below).
# (1) Tap water was provided during pot cultivation.
# (2) Tap water to which AOH was added such that the final concentration became 50 μM was provided for two weeks (from June 7th to June 20th) in the planting stage. Tap water was provided in the other period.
# (3) Tap water to which AOH was added such that the final concentration became 50 μM was provided for two weeks (from July 4th to July 17th) in the tillering stage. Tap water was provided in the other period.
# (4) Tap water added to which AOH was added such that the final concentration became 50 μM was provided for two weeks (from July 25th to August 7th) in the topdressing stage for panicle formation. Tap water was provided in the other period.
# (5) Tap water added to which AOH was added such that the final concentration became 50 μM was provided for two weeks (from August 15th to August 28th) in the topdressing stage for ripening. Tap water was provided in the other period. […]
# (7) Tap water to which AOH was added such that the final concentration became 50 μM was provided during pot cultivation.
# Brown rice and plant bodies soil-cultivated were dried at 30° C. for 15 days, and brown rice weight (both of weight per plant and weight per 100 brown rice grains), panicle length, culm length, number of panicles, number of tillers, and aerial part weight were measured.
# [6] = 0.5 mM AOH during seedling raising
# [7] = 0.5 mM AOH, topdressing at panicle formation
# [8] = 1.0 mM AOH during seedling raising
# [9] = per 10 plants, 0.5 mM AOH as basal fertilizer
# [10] = per 10 plants, 0.5 mM AOH during seedling raising
# [11] = per 10 plants, 0.5 mM AOH, topdressing at panicle formation
# [12] = per 10 plants, 1.0 mM AOH during seedling raising
# [13] = 50 μM AOH, topdressing stage for panicle formation
# [14] = 50 μM AOH, topdressing stage for ripening
# [15] = applying AOH all the time, vs control
smiles,measurement,setting,value
"Cn1nnc2[nH]c(=O)[nH]c2c1=O [3-methyl-AOH, 3-methyl-3H-imidazo[4,5-d][1,2,3]triazin-4,6(5H,7H)-dione]",Extension of shoots,[1],no influence
same,Extension of roots,[1],had extension activity for roots
"O=c1[nH]nnc2[nH]cnc12 [AHX, 7H-imidazo[4,5-d][1,2,3]triazin-4(3H)-one]",Extension of shoots,Rice (Oryza sativa),clearly promoted
same,Extension of shoots,[2],clearly promoted
same,Extension of shoots and roots,[3],promoted extension of shoots and roots concentration-dependently
"O=c1[nH]c2nn[nH]c(=O)c2[nH]1 [AOH, 3H-imidazo[4,5-d][1,2,3]triazin-4,6(5H,7H)-dione]",Extension of roots,[1],had extension activity for roots
same,Extension of shoots and roots,[3],promoted extension of shoots and roots concentration-dependently
same,Increasing rate of sieved brown rice relative to control,[4]; 0.5 mM AOH as basal fertilizer,10.5%
same,Thousand kernel weight,[4]; 0.5 mM AOH as basal fertilizer,23.5 ± 0.6 g
same,Increasing rate of sieved brown rice relative to control,[4]; [6],8.9%
same,Thousand kernel weight,[4]; [6],23.0 ± 0.5 g
same,Increasing rate of sieved brown rice relative to control,[4]; [7],7.2%
same,Thousand kernel weight,[4]; [7],23.4 ± 0.5 g
same,Increasing rate of sieved brown rice relative to control,[4]; [8],10.2%
same,Thousand kernel weight,[4]; [8],23.5 ± 0.3 g
same,Hull weight,"[4]; applying AOH, vs control",increased more than the control
same,Sieved brown rice,"[4]; applying AOH, vs control",increased more than the control
same,non-sieved brown rice weight,"[4]; applying AOH, vs control",increased more than the control
same,total brown rice weight,"[4]; applying AOH, vs control",increased more than the control
same,Hull weight,[4]; [9],288 ± 23.9 g
same,Non-sieved brown rice weight,[4]; [9],230 ± 19.7 g
same,Sieved brown rice,[4]; [9],222 ± 19.8 g
same,Total weight,[4]; [9],644 ± 49.5 g
same,Hull weight,[4]; [10],283 ± 35.0 g
same,Non-sieved brown rice weight,[4]; [10],227 ± 28.9 g
same,Sieved brown rice,[4]; [10],218 ± 29.0 g
same,Total weight,[4]; [10],630 ± 71.4 g
same,Hull weight,[4]; [11],279 ± 24.9 g
same,Non-sieved brown rice weight,[4]; [11],224 ± 20.9 g
same,Sieved brown rice,[4]; [11],215 ± 20.7 g
same,Total weight,[4]; [11],643 ± 54.1 g
same,Hull weight,[4]; [12],284 ± 24.4 g
same,Non-sieved brown rice weight,[4]; [12],228 ± 20.1 g
same,Sieved brown rice,[4]; [12],221 ± 19.5 g
same,Total weight,[4]; [12],638 ± 59.6 g
same,Aerial part,"[5]; 5 μM AOH, all the time",151 ± 6.19 g
same,Brown rice weight (g/100 grains),"[5]; 5 μM AOH, all the time",2.13 ± 0.09 g/100 grains
same,Brown rice weight (g/plant),"[5]; 5 μM AOH, all the time",59.3 ± 2.27 g/plant
same,Culm length,"[5]; 5 μM AOH, all the time",89.7 ± 6.40 cm
same,Increasing rate of aerial part relative to control,"[5]; 5 μM AOH, all the time",30%
same,Increasing rate of brown rice weight per plant relative to control,"[5]; 5 μM AOH, all the time",42%
same,Increasing rate of number of panicles relative to control,"[5]; 5 μM AOH, all the time",24%
same,Number of tillers,"[5]; 5 μM AOH, all the time",37.9 ± 3.71
same,Panicle length,"[5]; 5 μM AOH, all the time",24.5 ± 2.24 cm
same,number of panicles,"[5]; 5 μM AOH, all the time",32.8 ± 2.48
same,Aerial part,"[5]; 50 μM AOH, all the time",147 ± 9.63 g
same,Brown rice weight (g/100 grains),"[5]; 50 μM AOH, all the time",2.15 ± 0.16 g/100 grains
same,Brown rice weight (g/plant),"[5]; 50 μM AOH, all the time",58.2 ± 3.76 g/plant
same,Culm length,"[5]; 50 μM AOH, all the time",92.3 ± 5.64 cm
same,Increasing rate of aerial part relative to control,"[5]; 50 μM AOH, all the time",27%
same,Increasing rate of brown rice weight per plant relative to control,"[5]; 50 μM AOH, all the time",40%
same,Increasing rate of number of panicles relative to control,"[5]; 50 μM AOH, all the time",23%
same,Number of tillers,"[5]; 50 μM AOH, all the time",35.7 ± 4.15
same,Panicle length,"[5]; 50 μM AOH, all the time",24.4 ± 1.96 cm
same,number of panicles,"[5]; 50 μM AOH, all the time",32.7 ± 4.03
same,Aerial part,"[5]; 50 μM AOH, planting stage",125 ± 21.2 g
same,Brown rice weight (g/100 grains),"[5]; 50 μM AOH, planting stage",2.11 ± 0.07 g/100 grains
same,Brown rice weight (g/plant),"[5]; 50 μM AOH, planting stage",46.6 ± 9.43 g/plant
same,Culm length,"[5]; 50 μM AOH, planting stage",97.1 ± 12.1 cm
same,Increasing rate of brown rice weight per plant relative to control,"[5]; 50 μM AOH, planting stage",12%
same,Number of tillers,"[5]; 50 μM AOH, planting stage",34.6 ± 2.70
same,Panicle length,"[5]; 50 μM AOH, planting stage",23.5 ± 1.61 cm
same,number of panicles,"[5]; 50 μM AOH, planting stage",27.8 ± 4.26
same,Aerial part,"[5]; 50 μM AOH, tillering stage",112 ± 30.0 g
same,Brown rice weight (g/100 grains),"[5]; 50 μM AOH, tillering stage",2.12 ± 0.12 g/100 grains
same,Brown rice weight (g/plant),"[5]; 50 μM AOH, tillering stage",42.3 ± 12.2 g/plant
same,Culm length,"[5]; 50 μM AOH, tillering stage",94.5 ± 4.63 cm
same,Number of tillers,"[5]; 50 μM AOH, tillering stage",30.9 ± 3.67
same,Panicle length,"[5]; 50 μM AOH, tillering stage",26.2 ± 1.03 cm
same,number of panicles,"[5]; 50 μM AOH, tillering stage",23.0 ± 5.44
same,Aerial part,[5]; [13],134 ± 16.5 g
same,Brown rice weight (g/100 grains),[5]; [13],2.12 ± 0.07 g/100 grains
same,Brown rice weight (g/plant),[5]; [13],53.7 ± 3.59 g/plant
same,Culm length,[5]; [13],90.2 ± 6.15 cm
same,Increasing rate of brown rice weight per plant relative to control,[5]; [13],29%
same,Number of tillers,[5]; [13],31.6 ± 3.60
same,Panicle length,[5]; [13],24.5 ± 1.61 cm
same,number of panicles,[5]; [13],30.5 ± 4.50
same,Aerial part,[5]; [14],131 ± 13.3 g
same,Brown rice weight (g/100 grains),[5]; [14],2.18 ± 0.08 g/100 grains
same,Brown rice weight (g/plant),[5]; [14],53.2 ± 2.61 g/plant
same,Culm length,[5]; [14],92.8 ± 3.98 cm
same,Increasing rate of brown rice weight per plant relative to control,[5]; [14],28%
same,Number of tillers,[5]; [14],31.4 ± 3.91
same,Panicle length,[5]; [14],24.0 ± 2.07 cm
same,number of panicles,[5]; [14],28.8 ± 4.67
same,aerial part weight,[5]; [15],increased more than the control
same,number of panicles,[5]; [15],increased more than the control
same,brown rice weight per plant,"[5]; applying AOH in the topdressing stage for panicle formation or later, vs control",increased more than the control
